From publication PMC9116245, “New 1,2,3-triazole linked ciprofloxacin-chalcones induce DNA damage by inhibiting human topoisomerase I& II and tubulin polymerization” (Journal of Enzyme Inhibition and Medicinal Chemistry, 2022)
Where two headings read alike, the source gives them in different places.

Experiments:
[1] = biological target: T1, recombinant human DNA topoisomerase I (Homo sapiens, UniProt P11387); experiment: Human DNA Topoisomerase I Assay Kit (ProFoldin); format: biochemical; conditions: compounds at their IC50 values, reference camptothecin
T1 construct: purchased Sigma-Aldrich
T1 sequence (P11387 1-765): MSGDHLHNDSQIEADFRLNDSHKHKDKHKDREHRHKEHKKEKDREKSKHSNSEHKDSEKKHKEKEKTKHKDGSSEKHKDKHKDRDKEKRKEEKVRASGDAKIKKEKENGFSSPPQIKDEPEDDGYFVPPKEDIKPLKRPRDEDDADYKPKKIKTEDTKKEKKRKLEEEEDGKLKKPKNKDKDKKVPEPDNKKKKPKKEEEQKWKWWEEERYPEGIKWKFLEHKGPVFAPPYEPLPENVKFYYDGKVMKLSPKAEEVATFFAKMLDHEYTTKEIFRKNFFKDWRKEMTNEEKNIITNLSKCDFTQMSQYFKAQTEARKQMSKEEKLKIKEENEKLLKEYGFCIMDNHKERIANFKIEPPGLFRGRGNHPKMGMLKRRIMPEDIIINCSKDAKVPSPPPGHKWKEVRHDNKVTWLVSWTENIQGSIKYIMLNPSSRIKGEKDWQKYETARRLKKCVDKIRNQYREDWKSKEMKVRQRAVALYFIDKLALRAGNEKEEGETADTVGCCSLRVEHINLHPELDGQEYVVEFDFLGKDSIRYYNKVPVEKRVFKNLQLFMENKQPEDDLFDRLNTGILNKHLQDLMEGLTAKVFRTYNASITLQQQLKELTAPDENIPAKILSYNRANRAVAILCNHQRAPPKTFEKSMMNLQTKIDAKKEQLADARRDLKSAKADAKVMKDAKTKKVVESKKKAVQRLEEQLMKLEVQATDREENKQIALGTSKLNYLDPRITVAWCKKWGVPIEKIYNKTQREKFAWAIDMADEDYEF

[2] = tested on: ATR/CHK1/Cdc25C pathway; experiment: Western blot of ATR-Chk1-Cdc25C cascade in HCT116 cells; format: cell-based, human
Method: To clarify the molecular mechanism responsible for inducing G2/M phase arrest in HCT116 following the treatment with the synthesised compounds, the signalling in the checkpoint pathway that regulates the G2/M transition was investigated. The mammalian cells respond to the DNA damage through 2 different kinase-signalling cascades (ATR-Chk1 and ATM-Chk2). First, the effect of the synthesised compounds on ATM and ATR phosphorylation was tested. […] Then, the phosphorylation of downstream effectors of ATM/ATR, phospho-Chk1-S269, and phospho-Chk2-T68 kinases was explored. […] It is well known that in vitro activation of Chk1 phosphorylates Cdc25C on serine-216. Therefore, the impact of the synthesised compounds on the Cdc25C phosphorylation at Ser-216 was investigated.
Western blotting analysis for HCT116 cells was performed according to the reported procedure in the literature[77–79] to determine the effects of CP hybrids; 4a, 4b, 4e, 4i, and 4j on the expression of polymerised tubulin, γH2AX, p-ATR, p-CHK1, and p-Cdc25C by using the appropriate antibody. See Supplementary Appendix A.

[3] = tested on: HCC-2998; format: cell-based; conditions: Homo sapiens
[4] = tested on: SF-539; format: cell-based; conditions: Homo sapiens
[5] = tested on: SK-OV-3; format: cell-based; conditions: Homo sapiens
[6] = tested on: COLO 205; format: cell-based; conditions: Homo sapiens
[7] = tested on: UACC-257; format: cell-based; conditions: Homo sapiens
[8] = tested on: SN12C; format: cell-based; conditions: Homo sapiens
[9] = tested on: MDA-MB-231/ATCC; format: cell-based
[10] = tested on: U251; format: cell-based; conditions: Homo sapiens
[11] = tested on: DU-145; format: cell-based; conditions: Homo sapiens
[12] = tested on: Melanoma (cell line name not given); format: cell-based; conditions: Homo sapiens, under Melanoma
[13] = tested on: Human Embryonic Kidney (HEK) 293 cells; experiment: Cytotoxicity assay with non-cancerous cells (MTS); format: cell-based; conditions: HEK293 versus cancer cells
Method: To evaluate the selectivity and safety profile of the synthesised CP hybrids, a cytotoxicity experiment of compounds 4a, 4b, 4e, 4i, and 4j was performed using normal Human Embryonic Kidney (HEK) 293 cells.
To evaluate the selectivity and safety profile of the synthesised ciprofloxacin-chalcone hybrids, a cytotoxicity experiment was performed using a non-cancerous cell line. Briefly, Human Embryonic Kidney (HEK) 293 cells (ATCC, Manassas, VA, USA) were cultured in a Dulbecco’s Modified Eagle Medium (DEMEM) supplemented with 1 mM sodium pyruvate, 10 mM HEPES buffer solution, 2 mM GlutaMAX (Gibco, Grand Island, NY, USA), 50 µg/mL gentamycin sulphate (Dubuque, IA, USA), and 10% foetal bovine serum (ThermoFisher Scientific, USA). Cells were seeded in 96-well plates and incubated overnight in a humidified atmosphere with 5% CO2 at 37 °C. After 24 h, cells were treated with different concentrations (0.01–100 µM) of ciprofloxacin-chalcone hybrids. Also, DMSO and doxorubicin were used as negative and positive controls, respectively. After 72 h, old medium containing treatments were removed, and fresh medium and MTS reagents (CellTiter 96® AQueous One Solution Cell Proliferation Assay, Promega, Madison, WI, USA) were added. […] After 2 h, the absorbance was measured at 490 nm using a Spectra Max plus 384 Microplate reader (Molecular Devices, Sunnyvale, CA, USA) [74]. […]

[14] = tested on: PC-3; format: cell-based; conditions: Homo sapiens
[15] = tested on: NCI-H226; format: cell-based; conditions: Homo sapiens
[16] = tested on: HOP-92; format: cell-based; conditions: Homo sapiens
[17] = tested on: SK-MEL-28; format: cell-based; conditions: Homo sapiens
[18] = tested on: NCI-H460; format: cell-based; conditions: Homo sapiens
[19] = tested on: T-47D; format: cell-based; conditions: Homo sapiens, T47D
[20] = tested on: M14; format: cell-based; conditions: Homo sapiens
[21] = tested on: CAKI-1; format: cell-based; conditions: Homo sapiens
[22] = tested on: RPMI-8226; format: cell-based
[23] = tested on: MALME-3M; format: cell-based; conditions: Homo sapiens
[24] = tested on: HCT-15; format: cell-based; conditions: Homo sapiens
[25] = tested on: MCF7; format: cell-based, human
[26] = tested on: A549/ATCC; format: cell-based; conditions: Homo sapiens
[27] = read-out: LC50 (the source's name)

O=C(/C=C/c1ccccc1)c1ccc(-n2cc(CN3CCN(c4cc5c(cc4F)c(=O)c(C(=O)O)cn5C4CC4)CC3)nn2)cc1 [Compound 4a, (E) 7-(4-((1–(4-Cinnamoylphenyl)-1H-1,2,3-triazol-4-yl)methyl)piperazin-1-yl)-1-cyclopropyl-6-fluoro-4-oxo-1,4-dihydroquinoline-3-carboxylic acid]
Top-I inhibitory activity, enzyme assay kit [1]: highest Top-I inhibitory activity | expressions of p-ATR, p-CHK1, and p-Cdc25C, Western blot [2]: increased

O=C(/C=C/c1cccc(Cl)c1)c1ccc(-n2cc(CN3CCN(c4cc5c(cc4F)c(=O)c(C(=O)O)cn5C4CC4)CC3)nn2)cc1 [Compound 4b, (E)-7-(4-((1–(4-(3-(3-chlorophenyl)acryloyl)phenyl)-1H-1,2,3-triazol-4-yl)methyl)piperazin-1-yl)-1-cyclopropyl-6-fluoro-4-oxo-1,4-dihydroquinoline-3-carboxylic acid]
expressions of p-ATR, p-CHK1, and p-Cdc25C, Western blot [2]: increased

O=C(/C=C/c1ccc(F)cc1)c1ccc(-n2cc(CN3CCN(c4cc5c(cc4F)c(=O)c(C(=O)O)cn5C4CC4)CC3)nn2)cc1 [Compound 4e, (E)-1-cyclopropyl-6-fluoro-7–(4-((1–(4-(3-(4-fluorophenyl)acryloyl)phenyl)-1H-1,2,3-triazol-4-yl)methyl)piperazin-1-yl)-4-oxo-1,4-dihydroquinoline-3-carboxylic acid]
Top-I inhibitory activity, enzyme assay kit [1]: comparable to camptothecin | expressions of p-ATR, p-CHK1, and p-Cdc25C, Western blot [2]: increased

COc1ccc(/C=C/C(=O)c2ccc(-n3cc(CN4CCN(c5cc6c(cc5F)c(=O)c(C(=O)O)cn6C5CC5)CC4)nn3)cc2)cc1OC [Compound 4i, (E)-1-cyclopropyl-7-(4-((1-(4-(3–(3,4-dimethoxyphenyl)acryloyl)phenyl)-1H-1,2,3-triazol-4-yl)methyl)piperazin-1-yl)-6-fluoro-4-oxo-1,4-dihydroquinoline-3-carboxylic acid]
expressions of p-ATR, p-CHK1, and p-Cdc25C, Western blot [2]: increased

COc1cc(/C=C/C(=O)c2ccc(-n3cc(CN4CCN(c5cc6c(cc5F)c(=O)c(C(=O)O)cn6C5CC5)CC4)nn3)cc2)cc(OC)c1OC [Compound 4j, (E)-1-cyclopropyl-6-fluoro-4-oxo-7–(4-((1–(4-(3-(3,4,5-trimethoxyphenyl)acryloyl)phenyl)-1H-1,2,3-triazol-4-yl)methyl)piperazin-1-yl)-1,4-dihydroquinoline-3-carboxylic acid]
GI50 [3]: 1.73 µM | GI50 [4]: 1.91 µM | CC50 [4, 27]: 10.3 µM | GI50 [5]: 7.09 µM | CC50 [5, 27]: > 100 µM | GI50 [6]: 5.08 µM | CC50 [6, 27]: > 100 µM | GI50 [7]: 6.34 µM | LC50 [7]: > 100 µM | GI50 [8]: 2.66 µM | CC50 [8, 27]: 46.2 µM | GI50 ([9]; Homo sapiens, MDA-MB-231, MDA-MB231/ATCC): 3.2 µM | CC50 ([9]; Homo sapiens, MDA-MB-231/ATCC, read-out: LC50 (the source's name)): > 100 µM | TGI ([9]; MDA-MB231/ATCC): >100 µM | TGI ([9]; MDA-MB-231/ATCC): > 1.00E-4 Molar | GI50 ([10]; U-251): 1.48 µM | CC50 ([10]; U-251, read-out: LC50 (the source's name)): > 100 µM | GI50 [11]: 3.67 µM | LC50 (lethal concentration 50%) [11]: > 100 µM | GI50 [12]: 1.73 µM | selectivity index compared with Doxorubicin [13]: six-fold better | Top-I inhibitory activity, enzyme assay kit [1]: less potent Top-1 inhibitor | expressions of p-ATR, p-CHK1, and p-Cdc25C, Western blot [2]: increased | GI50 [14]: 2.54 µM | CC50 [14, 27]: > 100 µM | GI50 [15]: 2.39 µM | CC50 [15, 27]: > 100 µM | GI50 [16]: 11.7 µM | CC50 [16, 27]: > 100 µM | GI50 [17]: 2.77 µM | LC50 [17]: 78.9 µM | GI50 [18]: 2.4 µM | CC50 [18, 27]: > 100 µM | GI50 [19]: 3.16 µM | CC50 [19, 27]: > 100 µM | GI50 [20]: 2.49 µM | CC50 [20, 27]: > 100 µM | GI50 [21]: 5.1 µM | CC50 [21, 27]: 51.7 µM | GI50 ([22]; Homo sapiens, RPMI-8226, RPMI-8226): 0.401 µM | CC50 ([22]; Homo sapiens, RPMI-8226, read-out: LC50 (the source's name)): > 100 µM | GI50 ([22]; RPMI-8226): 0.4 µM | GI50 [23]: 2.59 µM | CC50 [23, 27]: > 100 µM | GI50 [24]: 2.25 µM | CC50 [24, 27]: > 100 µM | GI50 ([25]; Homo sapiens, MCF7, MCF7): 0.396 µM | CC50 ([25]; Homo sapiens, MCF7, read-out: LC50 (the source's name)): > 100 µM | GI50 ([25]; MCF7): 0.39 µM | GI50 [26]: 2.98 µM | CC50 [26, 27]: > 100 µM
